We go through four molecules from patent US20250161271A1, “PHARMACEUTICAL COMPOSITION FOR TREATING CANCER, COMPRISING ANTICANCER AGENT AND NOVEL COMPOUND HAVING INHIBITORY ACTIVITY WITH RESPECT TO PROSTAGLANDIN E2 RECEPTORS” (KANAPH THERAPEUTICS INC., priority 2022, published 2025).

One series addresses T1, hEP4 (Homo sapiens, UniProt P35408).
T1 construct: expressed in transfected cells; host or cells: HEK293
Nature of the series: hEP4 cAMP assay. Particulars: HEK293 cells overexpressing hEP4; PGE2 20 nM as agonist; median of multiple experiments; read-out: IC50 (nM) EP4 cAMP. Format: cell-based. The method, then: Experimental Example 1.2: hEP4 cAMP Assay
HEK293 cells overexpressing hEP4 were cultured in growth medium (GM:MEM (Gibco™, 11095080)/10% HI FBS (Gibco™, 10082147)/1% penicillin/streptomycin). Before the experiment, the growth medium was removed, and starvation medium (HBSS (Gibco™ 14025076)/10% GM) was added. Thereafter, the cells were incubated for 4 hours. HEK293 cells harboring hEP4 were detached from the culture dish with a non-enzymatic cell dissociation buffer (Gibco™, 15040066). The cells were resuspended in assay buffer (AB:HBSS, 0.1% BSA stabilizer, 0.5 mM IBMX, 5 mM HEPES).
(§1) 1,000 cells in 5 μL of AB were seeded per well in a 384 well plate (Corning®, 3570), and stock solutions of test compounds were prepared at a concentration of 1 mM in DMSO and serially diluted in DMSO to the concentration required for the inhibition dose response curve (test concentration range of […]-0.001 nM). […]
5 μL of each donor (Eu-cAMP tracer) and acceptor (ULight-anti-cAMP) was added, and the plate was incubated in the dark for 1 hour at room temperature, and then a Varioskan LUX multimode microplate reader was used to obtain the results (excitation: 334 nm, emission: 615 and 665 nm). The resulting FRET fluorescence value (665 nm/615 nm*10000) was converted and then calculated as a percentage of cAMP compared to the DMSO control value. […]

In the next series the target is T2, hEP2 (Homo sapiens, UniProt P43116).
T2 construct: expressed in transfected cells; host or cells: HEK293
In words: hEP2 cAMP assay. The conditions noted are these: HEK293 cells overexpressing hEP2; PGE2 400 pM as agonist; median of multiple experiments; read-out: IC50 (nM) EP2 cAMP. Format: cell-based. The method, then: Experimental Example 1.1: hEP2 cAMP Assay
HEK293 cells overexpressing hEP2 were cultured in growth medium (GM:MEM (Gibco™, 11095080)/10% HI FBS (Gibco™, 10082147)/1% penicillin/streptomycin). Before the experiment, the growth medium was removed, and starvation medium (HBSS (Gibco™ 14025076)/10% GM) was added. Thereafter, the cells were incubated for 4 hours. The HEK293 cells harboring hEP2 were detached from the culture dish with a non-enzymatic cell dissociation buffer (Gibco™, 15040066). The cells were resuspended in assay buffer (AB:HBSS, 0.1% BSA stabilizer, 0.5 mM IBMX, 5 mM HEPES).
as §1
5 μL of each donor (Eu-cAMP tracer) and acceptor (ULight-anti-cAMP) was added, and the plate was incubated in the dark for 1 hour at room temperature, and then a Varioskan LUX multimode microplate reader was used to obtain the results (excitation: 334 nm, emission: 615 and 665 nm). The resulting FRET fluorescence value (665 nm/615 nm*10000) was converted and then calculated as a percentage of cAMP relative to the DMSO control value. […]

The nature of series [1]: Body weight of mice in MC38 tumor model. Particulars: C57B/6 mice. Format: in vivo, mouse. The method, then: (§2) MC38 cells were subcultured in a cell incubator (CO2 incubator) under 37° C., 5% CO2 conditions using DMEM medium containing 10% FBS (fetal bovine serum). For the tumor animal model, MC38 cells were resuspended at a concentration of 1×10^6 cells/100 μL, and 100 μL per each mouse was transplanted into the subcutaneous region of the right flank of 6 to 7 week-old C57B/6 mice (Shanghai Lingchang Biotechnology Co., Ltd, Shanghai) to prepare a MC38 tumor model.
(§3) Drug administration was carried out for 18 days from the day after the test groups were grouped into a group treated with A02 (Example 1b), a group treated with an anti-PD-1 antibody, an immune checkpoint inhibitor, and a group treated with A02 and an anti-PD-1 antibody in combination. The anti-PD-1 antibody (BioXcell, Cat #BP0146) was diluted in PBS and intraperitoneally administered once every 3 days at a concentration of 200 μg/mouse. A02 was used as an excipient by adding Tween 80 to 0.5% methycellulose (40000 cp) aqueous solution until it reached 0.2%, and A02 was suspended as an excipient and orally administered daily at a concentration of 150 mg/kg.

A further series concerns MC38 cells. Nature of the series: Anticancer efficacy in mouse-derived colorectal carcinoma MC38 tumor model (tumor size). Type of series: in vivo. The method, then: Experimental Example 2.2. Evaluation of Anticancer Efficacy of Combination Administration in Mouse-Derived Colorectal Carcinoma Tumor Model: MC38
as §2
The tumor size was calculated by measuring in the same manner as in Experimental Example 2.1.
When the tumor size reached an average of 70 to 100 mm^3, the mice were randomly divided into groups for the evaluation of drug efficacy (average tumor size=91 mm^3). The drug efficacy was evaluated by substituting the measured tumor size into Equation 2 of Experimental Example 2.1 to calculate and compare the tumor growth inhibitory ability between groups.
as §3

The next series concerns CT26 cells. Nature of the series: Anticancer efficacy in mouse-derived colorectal carcinoma CT26 tumor model (tumor size). Type of series: in vivo. The protocol:
Experimental Example 2.1. Evaluation of Anticancer Efficacy of Combination Administration in Mouse-Derived Colorectal Carcinoma Tumor Model: CT26
(§4) CT26 cells were subcultured and maintained in a cell incubator (CO2 incubator) under 37° C., […] conditions using RPMI-1640 medium containing 10% FBS (fetal bovine serum). For the tumor animal model, CT26 cells were resuspended at a concentration of […] cells/100 μL, and 100 μL per each mouse was transplanted into the subcutaneous region of the right flank of 6 to 7 week-old BALB/c mice (Shanghai Lingchang Biotechnology Co., Ltd, Shanghai) to prepare a CT26 tumor model.
The tumor size was calculated by measuring the short axis and the long axis using a vernier caliper and substituting them into Equation 1 below.
tumor size (volume, mm^3)=(short axis, mm)^2×(long axis, mm)×0.5 [Equation 1]
When the tumor size reached an average of 70 to 100 mm^3, the mice were randomly divided into groups for the evaluation of drug efficacy (average tumor size per group=79 mm^3). The drug efficacy was evaluated by substituting the measured tumor size into Equation 2 to calculate and compare the tumor growth inhibitory ability between groups.
tumor growth inhibitory ability=[{(control group tumor size at the time of measurement,C)−(control group tumor size at the start of administration,C0)}−{(test group tumor size at the time of measurement,T)−(test group tumor size at the start of administration,T0)}]/{(control group tumor size at the time of measurement,C)−(control group tumor size at the start of administration,C0)} [Equation 2]
Drug administration was carried out for 12 days from the day after the test groups were grouped into a group treated with A01 (Example 34b), a group treated with an anti-PD-1 antibody, an immune checkpoint inhibitor, and a group treated with A01 and an anti-PD-1 antibody in combination. The anti-PD-1 antibody (BioXcell, Cat #BP0146) was diluted in PBS and intraperitoneally administered once every 3 days at a concentration of 200 μg/mouse. […]

Series [2] in a line: Body weight of mice in CT26 tumor model. Format: in vivo, mouse. The conditions noted are these: BALB/c mice. The method, then:
as §4
as §3, with “12” for “18”, “A01” for “A02”, “34b),” for “1b),”

T1 sequence (P35408 whole entry): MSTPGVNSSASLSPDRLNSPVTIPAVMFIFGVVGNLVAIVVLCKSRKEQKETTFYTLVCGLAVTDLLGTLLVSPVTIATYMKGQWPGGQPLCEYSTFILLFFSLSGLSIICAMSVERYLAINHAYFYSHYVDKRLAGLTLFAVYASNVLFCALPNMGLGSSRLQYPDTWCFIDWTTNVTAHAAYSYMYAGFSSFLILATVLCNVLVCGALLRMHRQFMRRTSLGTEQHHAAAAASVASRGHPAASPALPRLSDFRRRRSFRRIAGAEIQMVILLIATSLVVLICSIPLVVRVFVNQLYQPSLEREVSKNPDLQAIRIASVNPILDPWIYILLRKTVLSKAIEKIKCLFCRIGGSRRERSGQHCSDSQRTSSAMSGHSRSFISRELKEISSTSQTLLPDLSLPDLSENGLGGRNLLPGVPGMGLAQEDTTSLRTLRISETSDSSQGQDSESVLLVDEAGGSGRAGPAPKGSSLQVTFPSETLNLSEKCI
T2 sequence (P43116 whole entry): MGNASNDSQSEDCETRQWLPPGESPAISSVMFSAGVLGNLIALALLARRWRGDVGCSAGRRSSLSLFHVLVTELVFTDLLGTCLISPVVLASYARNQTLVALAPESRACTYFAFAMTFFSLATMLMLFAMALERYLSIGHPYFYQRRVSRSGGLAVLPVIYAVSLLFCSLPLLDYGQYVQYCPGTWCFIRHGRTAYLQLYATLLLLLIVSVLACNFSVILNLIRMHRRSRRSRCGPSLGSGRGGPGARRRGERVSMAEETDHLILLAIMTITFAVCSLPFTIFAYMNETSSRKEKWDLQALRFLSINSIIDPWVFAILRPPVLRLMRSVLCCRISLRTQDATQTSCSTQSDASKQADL

Regarding `COc1cc(-c2ccc(Cc3c(C)sc(C)c3C(=O)NC3CC4(C3)CC(C(=O)O)C4)cc2)cc(N2CCC2=O)c1` [Example 63, (2R, 4R, 6R)-6-(4-((3′-methoxy-5′-(2-oxoazetidin-1-yl)-[1,1′-biphenyl]-4-yl)methyl)-2,5-dimethylthiophene-3-carboxamido)spiro[3.3]heptane-2-carboxylic acid], the IC50 on hEP4 was not above 500 nM.

In the case of `O=C(N[C@]12C[C@](C(=O)O)(C1)C2)c1csc2ccn(Cc3ccc(-c4ccccc4)cc3)c12` [Example 87, 3-(4-([1,1′-biphenyl]-4-ylmethyl)-4H-thieno[3,2-b]pyrrole-3-carboxamido)bicyclo[1.1.1]pentane-1-carboxylic acid], the IC50 on hEP2 and at hEP4 was more than 10000 nM throughout.

Regarding `Cc1sc(C)c(C(=O)NC2CC3(C2)CC(C(=O)O)C3)c1Cc1ccc(-c2ccccc2)cc1` (stereo not shown) [Example A02], in series [1] (18 days administration, A02 150 mg/kg oral daily, anti-PD-1 antibody 200 μg/mouse i.p. once every 3 days), the “body weight at end point of the test” value was 22.0 ± 0.4 g. Moreover, the “body weight at start point of the test” value in series [1] (start of drug administration) is 19.1 ± 0.2 g. Further, the “tumor growth inhibition rate compared to control group” value with MC38 cells (18 days administration, A02 150 mg/kg oral daily, anti-PD-1 antibody 200 μg/mouse i.p. once every 3 days, Equation 2) amounted to 32.7%. In addition, the “tumor size at end point of the test” value in the series with MC38 cells (C57B/6 mice, 18 days administration, A02 150 mg/kg oral daily, anti-PD-1 antibody 200 μg/mouse i.p. once every 3 days) is given as 1711.0±236.4 mm^3. The “tumor size at start point of the test” value with MC38 cells (C57B/6 mice, start of drug administration) was found to be 91.5±3.1 mm^3.

Regarding `COc1cc(F)cc(-c2ccc(Cc3c(C)sc(C)c3C(=O)NC3CC4(C3)CC(C(=O)O)C4)cc2)c1` (stereo not shown) [Example A01], the “tumor growth inhibition rate compared to control group” value in the series with CT26 cells (12 days administration, A01 150 mg/kg oral daily, anti-PD-1 antibody 200 μg/mouse i.p. once every 3 days, Equation 2) came to 38.5%. The “tumor size at end point of the test” value in the series on CT26 cells (BALB/c mice, 12 days administration, A01 150 mg/kg oral daily, anti-PD-1 antibody 200 μg/mouse i.p. once every 3 days) was 1092.6±237.5 mm^3. For the same molecule, in the series on CT26 cells (BALB/c mice, start of drug administration), the “tumor size at start point of the test” value stood at 79.4±2.3 mm^3. For the same molecule, the “body weight at end point of the test” value in series [2] (12 days administration, A01 150 mg/kg oral daily, anti-PD-1 antibody 200 μg/mouse i.p. once every 3 days) was found to be 22.2 ± 0.6 g. For the same molecule, the “body weight at start point of the test” value in series [2] (start of drug administration) worked out at 20.4 ± 0.4 g.
